From ChEMBL document CHEMBL5625262, “Discovery and first-time disclosure of CVN766, an exquisitely selective orexin 1 receptor antagonist” (Bioorg Med Chem Lett, 2024)

Assays:
[1] = target: T1, Orexin receptor type 2 (Homo sapiens) (UniProt O43614); experiment: Antagonist activity at human Ox2R overexpressed in rat Chem-1 cells assessed as inhibition of orexin A induced calcium flux at 10 uM preincubated for 15 mins followed by orexin A addition by FLIPR analysis relative to control; format: functional, cell-based
T1 sequence (whole entry): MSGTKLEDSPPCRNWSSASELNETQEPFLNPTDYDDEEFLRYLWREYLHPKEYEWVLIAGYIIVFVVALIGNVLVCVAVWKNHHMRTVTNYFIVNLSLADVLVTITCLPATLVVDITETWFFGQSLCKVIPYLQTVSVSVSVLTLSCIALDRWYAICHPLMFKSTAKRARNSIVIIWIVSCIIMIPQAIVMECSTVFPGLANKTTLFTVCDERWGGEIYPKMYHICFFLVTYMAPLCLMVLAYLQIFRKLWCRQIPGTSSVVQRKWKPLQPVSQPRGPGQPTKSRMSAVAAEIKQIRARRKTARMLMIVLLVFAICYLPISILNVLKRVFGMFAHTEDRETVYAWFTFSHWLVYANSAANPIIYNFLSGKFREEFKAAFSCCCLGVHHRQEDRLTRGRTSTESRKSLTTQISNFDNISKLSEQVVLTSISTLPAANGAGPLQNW

[2] = target: T2, Orexin/Hypocretin receptor type 1 (Homo sapiens, UniProt O43613); experiment: Displacement of 3H-SB-674042 from human Ox1R expressed in CHO cell membranes by liquid scintillation counting method; design: species or system Membrane
T2 sequence (O43613 whole entry): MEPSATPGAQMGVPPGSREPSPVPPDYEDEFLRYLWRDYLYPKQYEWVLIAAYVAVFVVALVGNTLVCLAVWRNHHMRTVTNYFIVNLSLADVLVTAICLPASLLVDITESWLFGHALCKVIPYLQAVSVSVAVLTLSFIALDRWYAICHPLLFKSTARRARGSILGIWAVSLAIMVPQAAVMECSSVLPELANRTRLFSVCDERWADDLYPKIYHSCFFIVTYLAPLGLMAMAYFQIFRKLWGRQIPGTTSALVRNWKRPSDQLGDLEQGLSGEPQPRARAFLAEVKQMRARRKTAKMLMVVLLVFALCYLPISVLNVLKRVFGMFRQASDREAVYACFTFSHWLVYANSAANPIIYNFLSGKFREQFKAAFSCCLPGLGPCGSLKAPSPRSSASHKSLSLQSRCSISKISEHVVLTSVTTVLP

[3] = target: T2, Orexin/Hypocretin receptor type 1; experiment: Antagonist activity at human Ox1R overexpressed in rat Chem-1 cells assessed as inhibition of orexin A induced calcium flux preincubated for 15 mins followed by orexin A addition by FLIPR analysis; format: functional, cell-based
[4] = target: T3, Orexin/Hypocretin receptor type 1 (Homo sapiens) (UniProt O43613); settings: CHO, Membrane, filed as antagonist
T3 sequence (whole entry): T2 sequence (O43613 whole entry)

[5] = Metabolic stability in human liver microsomes assessed as intrinsic clearance; format: ADME, Microsome; settings: read-out: CLH
[6] = Metabolic stability in rat liver microsomes assessed as intrinsic clearance; format: ADME, Microsome; settings: read-out: CLH
[7] = Metabolic stability in mouse liver microsomes assessed as intrinsic clearance; format: ADME, Microsome; settings: read-out: CLH
Orexin receptor type 2 [8] = target: T4, Orexin receptor type 2 (Homo sapiens, UniProt O43614); experiment: Binding affinity to Ox2R (unknown origin)
T4 sequence (O43614 whole entry): T1 sequence (whole entry)

[9] = Selectivity ratio of pKi for displacement of 3H-SB-674042 from human Ox1R expressed in CHO cell membranes to pKi for Ox2R (unknown origin)
[10] = Volume of distribution in po or iv dosed Sprague-Dawley rat; format: ADME, organism-based; settings: in vivo
[11] = Oral bioavailability in Sprague-Dawley rat; format: ADME, organism-based; settings: in vivo
[12] = Oral bioavailability in dog; format: ADME, organism-based, Canis lupus familiaris; settings: in vivo
[13] = Clearance in dog; format: ADME, Canis lupus familiaris; settings: in vivo
[14] = Ratio of drug concentration in brain to plasma of po and iv dosed Sprague-Dawley rat; format: ADME, organism-based
[15] = Ratio of unbound drug concentration in brain to plasma of po and iv dosed Sprague-Dawley rat; format: ADME, organism-based
[16] = Tmax in Sprague-Dawley rat at 3 mg/kg, po measured for 8 hrs; format: ADME, organism-based; settings: in vivo
[17] = In vivo receptor occupancy at Ox1R in Sprague-Dawley rat at 3 mg/kg, po in presence of [3H]-SB-674042 measured for 8 hrs; format: ADME, organism-based
Orexin receptor type 2 [18] = target: T4, Orexin receptor type 2; experiment: Antagonist activity at human Ox2R overexpressed in rat Chem-1 cells assessed as inhibition of orexin A induced calcium flux preincubated for 15 mins followed by orexin A addition by FLIPR analysis; format: functional, cell-based

Q: What does the source list for O=C(N[C@H]1CCC[C@@H]1Nc1cnc(C(F)(F)F)cn1)c1ccccc1-n1nccn1?
A: inhibition [1]: 12%; Ki [2]: 81.3 nM

Q: Which results are given for C[C@]1(Nc2cnc(C(F)(F)F)cn2)CCC[C@@H]1NC(=O)c1ncccc1-n1nccn1?
A: IC50 [3]: 16 nM; inhibition [1]: 21.1%; Ki [2]: 18.2 nM; pKi ([2]; cho): 7.74

Q: For Cc1ccc(-n2nccn2)c(C(=O)N2CCN(c3nc4cc(Cl)ccc4o3)CC[C@H]2C)c1, which T1/2 [4] is on record?
A: 1.25 h

Q: Which results are given for C[C@]1(Nc2cnc(C(F)(F)F)cn2)CCC[C@@H]1NC(=O)c1ccccc1-n1nccn1?
A: IC50 [3]: 6 nM; inhibition [1]: 25.3%

Q: For Cc1nc(C(F)(F)F)cnc1N[C@H]1CCC[C@@H]1NC(=O)c1ccccc1-n1nccn1, which IC50 [3] is on record?
A: 21 nM

Q: And the inhibition [1]?
A: 22%

Q: What about the Ki [2] of the same compound?
A: 20.9 nM

Q: For Cc1nc(C(F)(F)F)cnc1N[C@H]1CCC[C@@H]1NC(=O)c1ncccc1-n1nccn1, which IC50 [3] is on record?
A: 32 nM

Q: And the inhibition [1]?
A: 11.4%

Q: Which inhibition [1] does the source give for CC(C)c1cnc(N[C@H]2CCC[C@@H]2NC(=O)c2ccccc2-n2nccn2)cn1 here?
A: 12%

Q: And the microsomal CLint [5]?
A: 23 µL/min/mg

Q: And the microsomal CLint [6]?
A: 119 µL/min/mg

Q: And the microsomal CLint [7]?
A: 403 µL/min/mg

Q: With CCc1nc(C(F)(F)F)cnc1N[C@H]1CCC[C@@H]1NC(=O)c1ccccc1-n1nccn1 as the compound, how does the inhibition [1] read?
A: 25.6%

Q: Which results are given for Cc1ccc(-n2nccn2)c(C(=O)N[C@H]2CCC[C@@H]2Nc2cnc3ccccc3n2)c1?
A: IC50 [3]: 16 nM; inhibition ([1]; filed as antagonist): 60%; microsomal CLint [5]: 24 µL/min/mg; microsomal CLint [6]: 335 µL/min/mg; microsomal CLint [7]: 442 µL/min/mg

Q: What does the source list for CCc1nc(C(F)(F)F)cnc1N[C@H]1CCC[C@@H]1NC(=O)c1ncccc1-n1nccn1 [CVN-766]?
A: IC50 [3]: 8 nM; inhibition [1]: 37.5%; microsomal CLint [5]: < 3 µL/min/mg; microsomal CLint [6]: 13 µL/min/mg; microsomal CLint [7]: < 3 µL/min/mg; Ki [2]: 7.24 nM; Ki (Orexin receptor type 2 [8]): 12900 nM; Ratio pKi [9]: > 1000; Vd [10]: 1.02 L/kg; bioavailability [11]: 18%; bioavailability [12]: 77%; clearance [13]: 2.2 mL/min/kg; BPR [14]: 0.6; K(p,uu,brain) [15]: 0.77; Tmax [16]: 1 h; Occ [17]: 79.9%; T1/2 [4]: 2.2 h

Q: Which results are given for CCc1nc(C(F)(F)F)cnc1N[C@@H]1CCC[C@H]1NC(=O)c1ncccc1-n1nccn1?
A: IC50 [3]: 1230 nM; inhibition ([1]; filed as antagonist): 71.4%

Q: With Cc1ccc(-n2nccn2)c(C(=O)N[C@H]2CCC[C@@H]2Nc2nc3ccc(F)cc3s2)c1 as the compound, how does the IC50 [3] read?
A: 17 nM

Q: And the IC50 (Orexin receptor type 2 [18])?
A: 2460 nM
